Consider five molecules from patent US4624953A, “1-piperazinocarboxylates and pharmaceutical compositions containing them” (priority 1981, dated 1986).

Each structure is given as a SMILES string. Like-named read-outs stand apart in the source and are kept apart here.

For experiment [1], the system named is isolation-induced aggressive behaviour. The note with it: background statement on clinically used drugs; cited from earlier work.
Experiment [2] has as its system conditioned avoidance response. In words: Conditioned avoidance response (CAR), shuttle box. In kind it is in vivo, female rats. Particulars: Rattus norvegicus, sc. As to the method:
The effect of the test compounds on CAR was evaluated in a shuttle box, manufactured by Ugo Basile, Italy. The female rats, weighing 150 g, were trained to avoid an electric shock (unconditioned stimulus--US) by escaping from one compartment to the other when the light from a 15 W lamp switched on (conditions stimulus--CS). When they responded to the CS, a conditioned response (CR) was considered to have been elicited.
Rats showing a stable CR of more than 80% after a three weeks' training program were used in the experiments. Groups of six rats were subcutaneously administered with various doses of the test compounds. 11/2 and 4 hours after the administration each rat was placed in the experimental box and the effect on CR was evaluated.
The mechanisms regulating conditioned responses are very complex. Both catecholaminergic and hormonal factors are of importance. [drawing 13]

The test system of experiment [3] is isolation-induced aggressive behaviour. As to the kind of experiment: Isolation-induced aggressive behaviour test. In kind it is in vivo, male NMRI mice. Particulars: Mus musculus, sc, read-out: ED50, isolation induced aggressive behaviour. An excerpt:
Male mice subjected to prolonged isolation develop aggressive behaviour against each other when paired (Yen, C. Y. et al., Arch. Int. Pharmacodyn. 123, 179, (1959); Valzelli, L., Adv. Pharmacol. 5, 79 (1967)). […] The clinical correlation of this test indicates tranquillizing and anxiolytic activities as well as antiaggressive properties as such (Duncan, R. L. et al., J. Med. Chem. 13, 1 (1970)).
This type of aggression is interesting because it is known that this kind of emotional behaviour might be located in limbic structures in the brain (MacLean, P. D., Psychosom. Med. 11, 338 (1949)).
Every week male NMRI mice, weighing 20-22 g, were isolated in Makrolon cages for three weeks with diet and water ad libitum. A piece of cardboard was placed between the cages to prevent visual contact.
To test aggressiveness the mice were paired in a neutral area, a beaker (14 cm high and diameter 14 cm). A pair is considered aggressive if both the animals show clear signs of fighting within 5 min. This fighting is characterized by biting and vocalization. As soon as fighting is seen, the mice are separated and brought to their home cage. […] Animals showing no aggression are discarded. […] The test substance is administered s.c. (0.2-0.4 ml/20 g). The mice are paired 0.5 h after the injection for trials of 5 min. duration.
The ED50 -value (mg/kg) reported is the dose inhibiting aggressive behaviour among 50 percent of the pairs 0.5 hour after drug administration.

Where [4] appears, read: 1.5 hr after administration, dose inhibiting CR in 50% of the animals, read-out: ED50, conditioned avoidance behaviour, 1.5 hr.
Where [5] appears, read: 4 hr after administration, dose inhibiting CR in 50% of the animals, read-out: ED50, conditioned avoidance behaviour, 4 hr.
[6] abbreviates: 0.5 h after administration, dose inhibiting aggressive behaviour among 50 percent of the pairs.

By ED50 is commonly meant the dose that gives a 50% effect, or the effect in half of the subjects.

Turning to `CN1C(=O)CN=C(c2ccccc2)c2cc(Cl)ccc21` [Diazepam], the “activity on isolation-induced aggressive behaviour (in words)” value in experiment [1] is “active on this kind of aggressive behaviour”.

Take `COC(=O)N1CCN(CCCC(c2ccc(F)cc2)c2ccc(F)cc2)CC1.Cl` [I (a), 1-Carbomethoxy-4-[4,4-bis(p-fluorophenyl)butyl]piperazine hydrochloride]: the median effective dose (ED50) in experiment [2] (setting [4]) came to 45 mg/kg; in experiment [2] (setting [5]), 12 mg/kg; in experiment [3] (setting [6]), 6 mg/kg.

For `CN(C)CCC=C1c2ccccc2CCc2ccccc21` [Amitriptyline], the median effective dose (ED50) in experiment [3] (setting [6]) turned out to be 5 mg/kg.

With `CN(C)CCCN1c2ccccc2Sc2ccc(Cl)cc21` [Chlorpromazine], the 50% effective dose (ED50) was found to be 3.5 mg/kg in experiment [2] (1.5 h, read-out: ED50, conditioned avoidance behaviour, 1.5 hr); 5.2 mg/kg in experiment [2] (4 h, read-out: ED50, conditioned avoidance behaviour, 4 hr); 1.4 mg/kg in experiment [3] (0.5 h).

In the case of `CSc1ccc2c(c1)N(CCC1CCCCN1C)c1ccccc1S2` (centres unmarked) [Thioridazine], the ED50 in experiment [2] (setting [4]) is 41 mg/kg; in experiment [2] (setting [5]), 40 mg/kg; in experiment [3] (setting [6]) it was 5 mg/kg.
